# Molecular target: T1, DENV4 NS2B-NS3pro (Dengue virus type 4, UniProt Q2YHF0, DELINS1442-1474GGGGSGGGG)
# Experiment: Inhibitor enzyme kinetics (Lineweaver-Burk and Dixon plots) against NS2B-NS3pro
# Format: biochemical, dengue virus type 4 (DENV4)
# Conditions: AMC peptide substrates
# Experimental: Inhibitory kinetic experiments were performed at different constant inhibitor concentrations and different substrate concentrations. Lineweaver–Burk and Dixon plots were used to analyze the inhibition modes of these compounds. Ki values were calculated from the Dixon plots.
# The type of inhibition was determined using Lineweaver–Burk plots, and Ki values were determined with a Dixon plot (1/v as a function of [I], inhibitor concentration) from different inhibitor concentrations.
# T1 sequence (Q2YHF0 1475-1660, added parts left off, stated change not applied): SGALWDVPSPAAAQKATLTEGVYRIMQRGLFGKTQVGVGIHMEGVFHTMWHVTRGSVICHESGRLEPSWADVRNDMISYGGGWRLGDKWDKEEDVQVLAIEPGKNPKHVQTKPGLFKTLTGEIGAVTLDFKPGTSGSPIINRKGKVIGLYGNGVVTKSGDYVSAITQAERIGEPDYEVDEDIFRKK
row,Compound,Inhibition mode
1,"CCN(CC)CCn1c(NC(=O)c2ccc(Cn3nc([N+](=O)[O-])c(Cl)c3C)o2)nc2ccccc21 [Compound 2, 5-((4-chloro-5-methyl-3-nitro-1H-pyrazol-1-yl)methyl)-N-(1-(2-(diethylamino)ethyl)-1H-benzo[d]imidazol-2-yl)furan-2-carboxamide]",competitive inhibitors
2,"CC(=O)N1N=C(c2cc(-c3ccccc3)nc3ccccc23)OC1c1ccc(C(=O)O)cc1 (centres unmarked) [Compound 14, 4-(3-acetyl-5-(2-phenylquinolin-4-yl)-2,3-dihydro-1,3,4-oxadiazol-2-yl)benzoic acid]",competitive inhibitors

# Molecular target: T1, DENV4 NS2B-NS3pro
# Experiment: In vitro inhibition assay of recombinant NS2B-NS3pro with fluorogenic AMC peptide substrate
# Format: biochemical, dengue virus type 4 (DENV4)
# Conditions: inhibition activity at 100 μM, 1.65 µM AMC peptide substrate; Table 2
row,Compound,Inhibition
1,"O=C(NCCN1CCCCC1)c1cccc(Nc2ccc(-c3cccc(F)c3)nn2)c1 [Compound 29, 3-((6-(3-fluorophenyl)pyridazin-3-yl)amino)-N-(2-(piperidin-1-yl)ethyl)benzamide]",66.6%
2,"O=S(=O)(c1ccc(-c2csc(N3N=C(c4cccs4)CC3c3ccc(F)cc3)n2)cc1)N1CCCCC1 (centres unmarked) [Compound 12, 2-(5-(4-fluorophenyl)-3-(thiophen-2-yl)-4,5-dihydro-1H-pyrazol-1-yl)-4-(4-(piperidin-1-ylsulfonyl)phenyl)thiazole]",85.2%
3,"Cc1nnc2c(Nc3cccc(C(=O)O)c3)nc3ccc(C(=O)c4ccccc4)cc3n12 [Compound 5, 3-((8-benzoyl-1-methyl-[1,2,4]triazolo[4,3-a]quinoxalin-4-yl)amino)benzoic acid]",58.8%
4,"O=C(O)CCCNc1cc(N2CCCCCC2)c2noc3c2c1C(=O)c1ccccc1-3 [Compound 27, 4-((3-(azepan-1-yl)-6-oxo-6H-anthra[1,9-cd]isoxazol-5-yl)amino)butanoic acid]",82.5%

# Same assay, conditions: primary inhibition assay at a 100 μM concentration of inhibitors; Table S1
row,Compound,Inhibition Activity
1,"CCN(CC)CCn1c(NC(=O)c2ccc(Cn3nc([N+](=O)[O-])c(Cl)c3C)o2)nc2ccccc21 [Compound 2, 5-((4-chloro-5-methyl-3-nitro-1H-pyrazol-1-yl)methyl)-N-(1-(2-(diethylamino)ethyl)-1H-benzo[d]imidazol-2-yl)furan-2-carboxamide]",95.23%
2,"O=C(NCCN1CCCCC1)c1cccc(Nc2ccc(-c3cccc(F)c3)nn2)c1 [Compound 29, 3-((6-(3-fluorophenyl)pyridazin-3-yl)amino)-N-(2-(piperidin-1-yl)ethyl)benzamide]",66.55%
3,"N-(3-(4-ethylpiperazin-1-yl)propyl)-1-(5-(2-oxopyrrolidin-1-yl)-1,3,4-thiadiazol-2-yl)piperidine-3-carboxamide [Compound 30]",1.3%
4,"COC(=O)CSc1ncn(-c2nc(N3CCCCC3)nc(N3CCCCC3)n2)n1 [Compound 19, methyl 2-((1-(4,6-di(piperidin-1-yl)-1,3,5-triazin-2-yl)-1H-1,2,4-triazol-3-yl)thio)acetate]",10.28%
5,"O=C1c2ccc(-n3c(=O)c4cc5c(=O)n(-c6ccc7c(c6)C(=O)N(c6ccccc6)C7=O)c(=O)c5cc4c3=O)cc2C(=O)N1c1ccccc1 [Compound 4, 2,6-bis(1,3-dioxo-2-phenylisoindolin-5-yl)pyrrolo[3,4-f]isoindole-1,3,5,7(2H,6H)-tetraone]",4.64%
6,"O=S(=O)(c1ccc(-c2csc(N3N=C(c4cccs4)CC3c3ccc(F)cc3)n2)cc1)N1CCCCC1 (centres unmarked) [Compound 12, 2-(5-(4-fluorophenyl)-3-(thiophen-2-yl)-4,5-dihydro-1H-pyrazol-1-yl)-4-(4-(piperidin-1-ylsulfonyl)phenyl)thiazole]",85.17%
7,"COc1cccc(-n2nc(C(=O)NC3CCCCCC3)c3ccccc3c2=O)c1 [Compound 9, N-cycloheptyl-3-(3-methoxyphenyl)-4-oxo-3,4-dihydrophthalazine-1-carboxamide]",23.33%
8,3-(((1-methyl-1H-tetrazol-5-yl)thio)methyl)-7-(2-(5-methyl-4-nitro-1H-pyrazol-1-yl)acetamido)-8-oxo-5-thia-1-azabicyclo[4.2.0]oct-2-ene-2-carboxylic acid [Compound 17],23.01%
9,"(5,7-dimethyl-6-(3-methylbenzyl)pyrazolo[1,5-a]pyrimidin-3-yl)(4-(2,5-dimethylphenyl)piperazin-1-yl)methanone [Compound 6]",8.61%
10,"Cc1cccc(-c2nc3nc(C)cc(Nc4ccc(CC(=O)O)cc4)n3n2)c1 [Compound 15, 2-(4-((5-methyl-2-(m-tolyl)-[1,2,4]triazolo[1,5-a]pyrimidin-7-yl)amino)phenyl)acetic acid]",17.36%
11,"3,3'-(ethane-1,2-diyl)bis(2-(((7-chloro-4-oxo-4H-pyrido[1,2-a]pyrimidin-2-yl)methyl)thio)quinazolin-4(3H)-one) [Compound 35]",48.66%
12,"N-cycloheptyl-2,5-dimethyl-4-(4-(pyridin-2-yl)piperazin-1-yl)thieno[2,3-d]pyrimidine-6-carboxamide [Compound 28]",32.84%
13,"N-(1,5-dimethyl-3-oxo-2-phenyl-2,3-dihydro-1H-pyrazol-4-yl)-2-((5,9-dimethyl-[1,2,4]triazolo[4,3-a]quinolin-1-yl)thio)acetamide [Compound 26]",28.11%
14,"1-(5-(4-(4-(5-chloro-2-methylphenyl)piperazine-1-carbonyl)piperidin-1-yl)-1,3,4-thiadiazol-2-yl)pyrrolidin-2-one [Compound 18]",0.15%
15,"CC(=O)N1N=C(c2cc(-c3ccccc3)nc3ccccc23)OC1c1ccc(C(=O)O)cc1 (centres unmarked) [Compound 14, 4-(3-acetyl-5-(2-phenylquinolin-4-yl)-2,3-dihydro-1,3,4-oxadiazol-2-yl)benzoic acid]",98.15%
16,"N-(4-((2-(benzo[d][1,3]dioxol-5-yl)-1,3-dioxoisoindolin-5-yl)oxy)phenyl)-1-oxo-4-phenyl-1H-isochromene-3-carboxamide [Compound 20]",28.87%
17,"Cc1nc2sc(C(=O)c3ccc(-c4ccc(C(=O)c5sc6nc(C)c(C)c(C)c6c5N)cc4)cc3)c(N)c2c(C)c1C [Compound 10, [1,1'-biphenyl]-4,4'-diylbis((3-amino-4,5,6-trimethylthieno[2,3-b]pyridin-2-yl)methanone)]",7.59%
18,"N2,N2-dimethyl-6-(((4-methyl-5-((2-methyl-5-nitro-1H-imidazol-1-yl)methyl)-4H-1,2,4-triazol-3-yl)thio)methyl)-1,3,5-triazine-2,4-diamine [Compound 31]",6.49%

row,Compound,Inhibition Activity
1,"2-(3-fluorophenyl)-7-((2-(3-fluorophenyl)-4-oxo-4H-benzo[d][1,3]oxazin-6-yl)methyl)-4H-benzo[d][1,3]oxazin-4-one [Compound 36]",34.33%
2,"Cc1nn(-c2ccccc2)c2c1nc(CCC(=O)NCCN1CCN(C)CC1)c(=O)n2C [Compound 24, 3-(3,7-dimethyl-6-oxo-1-phenyl-6,7-dihydro-1H-pyrazolo[3,4-b]pyrazin-5-yl)-N-(2-(4-methylpiperazin-1-yl)ethyl)propanamide]",29.46%
3,"N-(1-benzyl-1H-benzo[d]imidazol-2-yl)-5-((3-nitro-1H-1,2,4-triazol-1-yl)methyl)furan-2-carboxamide [Compound 32]",45.55%
4,"2-((4aR,5R,5aR,8aR,9S)-2,6,8-trioxo-3,10-diphenyl-2,3,4a,5,5a,6,8a,9,9a,10-decahydro-5,9-methanothiazolo[5',4':5,6]thiopyrano[2,3-f]isoindol-7(8H)-yl)acetic acid [Compound 34]",39.67%
5,"1-(4-(2,5-dimethylphenyl)piperazin-1-yl)-4-(10-methylbis([1,2,4]triazolo)[4,3-a:1',5'-c]quinazolin-3-yl)butan-1-one [Compound 3]",2.61%
6,"O=C1c2ccccc2C(=O)N1c1cccc(-c2csc(N3N=C(c4ccccc4)CC3c3ccccc3)n2)c1 (centres unmarked) [Compound 21, 2-(3-(2-(3,5-diphenyl-4,5-dihydro-1H-pyrazol-1-yl)thiazol-4-yl)phenyl)isoindoline-1,3-dione]",21.27%
7,"Cc1nnc2c(Nc3cccc(C(=O)O)c3)nc3ccc(C(=O)c4ccccc4)cc3n12 [Compound 5, 3-((8-benzoyl-1-methyl-[1,2,4]triazolo[4,3-a]quinoxalin-4-yl)amino)benzoic acid]",58.83%
8,"C(=C\CSc1nnc(-c2ccccc2)c(-c2ccccc2)n1)/CSc1nnc(-c2ccccc2)c(-c2ccccc2)n1 [Compound 33, (E)-1,4-bis((5,6-diphenyl-1,2,4-triazin-3-yl)thio)but-2-ene]",40.52%
9,"N-(3-(4-cyclohexylpiperazin-1-yl)propyl)-1-(5-(2-oxopyrrolidin-1-yl)-1,3,4-thiadiazol-2-yl)piperidine-3-carboxamide [Compound 23]",17.71%
10,"4-((4aR,5R,5aR,8aR,9S)-10-(4-(tert-butyl)phenyl)-2,6,8-trioxo-2,3,4a,5,5a,6,8a,9,9a,10-decahydro-5,9-methanothiazolo[5',4':5,6]thiopyrano[2,3-f]isoindol-7(8H)-yl)butanoic acid [Compound 11]",12.46%
11,"2-(1-isobutyl-5,5-dimethyl-3-(naphthalen-1-yl)-2-oxoimidazolidin-4-yl)-4-(naphthalen-1-yl)-1,2,4-oxadiazolidine-3,5-dione [Compound 16]",33.28%
12,"N-(3-(piperidin-1-yl)propyl)-1-(6-(p-tolyl)imidazo[2,1-b][1,3,4]thiadiazol-2-yl)piperidine-3-carboxamide [Compound 8]",33.48%
13,"4-(2,6-bis(3-hydroxyphenyl)-1,3,5,7-tetraoxo-1,2,3,5,6,7-hexahydropyrrolo[3,4-f]isoindole-4-carbonyl)benzoic acid [Compound 1]",15.05%
14,"Nc1nonc1-c1nc2ccccc2n1Cc1ccc(Cn2c(-c3nonc3N)nc3ccccc32)cc1 [Compound 25, 4,4'-(1,1'-(1,4-phenylenebis(methylene))bis(1H-benzo[d]imidazole-2,1-diyl))bis(1,2,5-oxadiazol-3-amine)]",36.45%
15,"O=C(Nc1ccc(Br)cc1C(=O)c1ccccc1)c1cccc(Nc2nc(-c3ccccc3)c3cc(Br)ccc3n2)c1 [Compound 7, N-(2-benzoyl-4-bromophenyl)-3-((6-bromo-4-phenylquinazolin-2-yl)amino)benzamide]",21.31%
16,"O=C(O)CCCNc1cc(N2CCCCCC2)c2noc3c2c1C(=O)c1ccccc1-3 [Compound 27, 4-((3-(azepan-1-yl)-6-oxo-6H-anthra[1,9-cd]isoxazol-5-yl)amino)butanoic acid]",82.53%
17,"5-(5,6-dibromo-1,3-dioxohexahydro-1H-4,7-methanoisoindol-2(3H)-yl)-2-morpholinobenzoic acid [Compound 13]",5.55%

# Source: paper PMC6269914, “In Vitro Evaluation of Novel Inhibitors against the NS2B-NS3 Protease of Dengue Fever Virus Type 4” (Molecules, 2013)
